In paper PMC3543868 (Cell reports, 2012):

Target: GroEL in complex with its cofactor GroES (Escherichia coli, UniProt P0A6F5)
Details: with GroES (singly capped); no AlFx; labelled compound

GroEL in complex with its cofactor GroES, sequence (P0A6F5 2-548): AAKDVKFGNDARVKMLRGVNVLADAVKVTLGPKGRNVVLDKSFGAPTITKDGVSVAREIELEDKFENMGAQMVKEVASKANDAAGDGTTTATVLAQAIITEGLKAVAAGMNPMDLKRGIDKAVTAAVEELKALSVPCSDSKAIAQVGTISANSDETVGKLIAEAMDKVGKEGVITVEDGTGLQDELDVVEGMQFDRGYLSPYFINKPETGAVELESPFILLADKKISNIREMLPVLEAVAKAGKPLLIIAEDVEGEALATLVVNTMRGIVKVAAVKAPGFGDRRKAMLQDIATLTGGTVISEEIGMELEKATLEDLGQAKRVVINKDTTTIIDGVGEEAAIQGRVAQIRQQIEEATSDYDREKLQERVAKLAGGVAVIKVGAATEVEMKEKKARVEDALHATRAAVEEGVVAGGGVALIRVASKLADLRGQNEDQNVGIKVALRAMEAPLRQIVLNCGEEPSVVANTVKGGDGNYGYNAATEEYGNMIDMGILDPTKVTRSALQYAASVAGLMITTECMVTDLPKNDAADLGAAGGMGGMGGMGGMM
GroEL in complex with its cofactor GroES, sequence (P0A6F9 whole entry, further chain): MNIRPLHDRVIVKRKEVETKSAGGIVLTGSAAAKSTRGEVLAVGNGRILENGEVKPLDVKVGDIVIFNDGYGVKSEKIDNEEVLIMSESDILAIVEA

`Nc1ncnc2c1ncn2[C@@H]1O[C@H](COP(=O)(O)OP(=O)(O)OP(=O)(O)O)[C@@H](O)[C@H]1O` [ATP] was tested, and the “nucleotides per GroEL 14-mer” value was ~ 7 nucleotides per GroEL 14-mer.
